Experimental data taken from US12428370B2, “Haloallylamine dual amine oxidase inhibitors” (Syntara Limited, priority 2020, dated 2025).
Counter-ions that a name gives are not always drawn.

Tests used:
[1] = target: T1, Muscle and Heart Tissue MAO-A (Mus musculus, UniProt Q64133); experiment: Mouse muscle and heart tissue MAO-A activity after oral administration; format: in vivo
T1 construct: Skeletal muscle was pulverized in liquid nitrogen and then suspended in ice-cold HEPES buffered media; from tissue; host or cells: skeletal muscle and heart of C57BL/6J and mdx mice (mitochondrial extract)
T1 sequence (Q64133 1-526): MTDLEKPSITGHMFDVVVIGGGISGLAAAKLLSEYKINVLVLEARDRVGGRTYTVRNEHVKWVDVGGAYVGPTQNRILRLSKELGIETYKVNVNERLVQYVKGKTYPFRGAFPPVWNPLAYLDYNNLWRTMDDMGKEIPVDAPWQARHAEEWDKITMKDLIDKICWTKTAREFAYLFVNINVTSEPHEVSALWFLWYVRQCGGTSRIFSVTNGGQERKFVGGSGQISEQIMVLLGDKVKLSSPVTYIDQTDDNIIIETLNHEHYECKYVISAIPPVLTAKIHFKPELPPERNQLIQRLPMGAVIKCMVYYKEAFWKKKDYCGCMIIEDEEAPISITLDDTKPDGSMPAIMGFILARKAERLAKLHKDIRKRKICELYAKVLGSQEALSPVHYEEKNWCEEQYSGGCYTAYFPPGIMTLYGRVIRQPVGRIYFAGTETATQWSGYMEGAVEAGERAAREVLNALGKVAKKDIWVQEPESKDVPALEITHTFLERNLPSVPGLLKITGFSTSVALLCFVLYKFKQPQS
Method: Mice were orally administered the compound under study and sacrificed at various time points and abdominal fat, muscle and heart tissue collected.
Skeletal muscle was pulverized in liquid nitrogen and then suspended in ice-cold HEPES buffered media (20 mM HEPES, 0.8% w/v free-fatty acid bovine serum albumin (BSA), 75 mM sucrose, 10 mM EDTA, 215 mM D-mannitol, pH 7.4). Homogenized and then centrifuged at 2,500 rpm for 10 minutes at 4° C. Supernatant transferred and centrifuged at 10,000 rpm for 8 minutes. Supernatant discarded and the resultant pellet containing the mitochondrial extract re-suspended in 0.1 M sodium phosphate buffer solution (1:3 ratio).
Heart muscle was washed with PBS solution three times over ice. Homogenate and extract was then prepared as described for the skeletal muscle.
MAO-A activity was determined by using a selective MAO-B inhibitor mofegiline (at 30 nM) to establish the high signal and a mixture of specific MAO-A inhibitor (clorgyline) and mofegiline (at 30 nM) to determine the low signal.
Activity of the treated samples was analyzed using the fluorometric method described in EXAMPLE 9 for SSAO/VAP-1 activity, EXAMPLE 10 for MAO-B and EXAMPLE 11 for MAO-A activity (FIG. 8 and FIG. 9).

phospholipidosis = experiment: Phospholipidosis cell-based fluorescence assay; settings: concentrations up to 100 μM
Method: Assessment of the Potential of Compound 1 to Induce Phospholipidosis in a Cell-Based Fluorescence Assay.
Compound 1 was tested in vitro for the potential to induce phospholipidosis according to the method outlined by Fujimura et. al. (Experimental and Toxicologic Pathology, 2007, 58, 375-382) at concentrations up to 100 μM.

[2] = target: T2, Rat Adipose Tissue SSAO/VAP-1 (Rattus norvegicus, UniProt O08590); experiment: Rat adipose tissue SSAO/VAP-1 activity after oral administration; format: in vivo, Sprague Dawley rats; settings: single oral dose 0.6 mg/kg, Sprague Dawley rat adipose tissue, FIG. 2
T2 construct: Adipose tissue was homogenized in ice-cold HES buffer; from tissue; host or cells: gonadal fat of Sprague Dawley rats (homogenate supernatant)
T2 sequence (O08590 1-763): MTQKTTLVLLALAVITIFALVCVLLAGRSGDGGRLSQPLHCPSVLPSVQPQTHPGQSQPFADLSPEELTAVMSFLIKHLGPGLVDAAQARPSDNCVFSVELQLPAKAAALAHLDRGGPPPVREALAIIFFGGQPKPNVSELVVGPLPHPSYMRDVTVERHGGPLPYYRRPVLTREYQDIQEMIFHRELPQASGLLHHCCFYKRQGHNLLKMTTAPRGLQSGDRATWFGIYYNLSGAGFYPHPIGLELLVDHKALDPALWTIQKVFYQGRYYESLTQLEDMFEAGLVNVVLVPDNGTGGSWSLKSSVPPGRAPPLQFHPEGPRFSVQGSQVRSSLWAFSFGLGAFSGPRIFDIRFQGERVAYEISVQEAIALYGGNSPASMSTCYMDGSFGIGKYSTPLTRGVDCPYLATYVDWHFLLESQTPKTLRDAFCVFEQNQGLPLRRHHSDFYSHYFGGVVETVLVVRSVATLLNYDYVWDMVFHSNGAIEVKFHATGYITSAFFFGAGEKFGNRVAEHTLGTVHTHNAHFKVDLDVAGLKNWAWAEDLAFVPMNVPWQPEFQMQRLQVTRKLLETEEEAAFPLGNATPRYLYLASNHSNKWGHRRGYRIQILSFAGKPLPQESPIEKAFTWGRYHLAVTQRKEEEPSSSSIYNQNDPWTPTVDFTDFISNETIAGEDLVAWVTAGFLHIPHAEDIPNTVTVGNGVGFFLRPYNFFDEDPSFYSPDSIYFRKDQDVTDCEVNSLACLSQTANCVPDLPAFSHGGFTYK
Method: Sprague Dawley rats were orally administered the compound under study and sacrificed at various time points and gonadal fat and brain tissue collected.
Adipose tissue was homogenized in ice-cold HES buffer (20 mM HEPES, 1 mM EDTA, sucrose 250 mM, proteases and phosphatases inhibitor, pH 7.4). Homogenate was then centrifuged at 2000 rpm for 5 minutes at 4° C. and the resultant supernatant portion (minus the lipid top layer) used for assay. SSAO/VAP-1 activity was determined by using a non-specific MAO inhibitor (e.g. pargyline) to establish the high signal and a mixture of non-specific MAO inhibitor and an SSAO/VAP-1 inhibitor (e.g. semicarbazide) to determine the low signal.
Activity of the treated samples was analyzed using the fluorometric method described in EXAMPLE 9 for SSAO/VAP-1 activity and EXAMPLE 10 for MAO-B.

SMILES | heart and muscle MAO-A activity ([1]; C57BL/6J mice, single oral dose, 4 and 24 hours after administration, FIG. 9) | muscle MAO-A activity ([1]; mdx mice (C57BL/10ScSn-Dmdmdx/J), oral, FIG. 11) | effect on cell viability (phospholipidosis) | effect on the cellular phenotype (phospholipidosis) (phospholipidosis) | duration of inhibition of SSAO/VAP-1 enzyme activity [2]
N#Cc1ccc(OC/C(=C/F)CN)cc1 [Compound 1, (E)-4-((2-(aminomethyl)-3-fluoroallyl)oxy) benzonitrile] | no inhibitory effect | no inhibitory effect | no effect | no effect | 
NC/C(=C\F)C1Cc2ccccc2O1 (single isomer, unassigned; (-)) [PXS-5131, (−)-(E)-2-(2,3-Dihydrobenzofuran-2-Yl)-3-Fluoroprop-2-En-1-Amine Hydrochloride] |  |  |  |  | greater than 24 hours
